# Measurements reported in patent US20070123460A1, “Probiotic compounds from Lactobacillus GG and uses therefor” (THE UNIVERSITY OF CHICAGO, priority 2005, published 2007).
# System: Hsp72
# Test: Hsp72 induction in YAMC cells, Western blot
# Assay type: cell-based, mouse
# Details: inhibitor 2 hours before LGG-CM (15 minutes); harvest 4 hours later; SB203580 20 μM, SP600125 20 μM, PD98059 50 μM
# Description: Prior to each study, cells were plated at a density of 2×10^5 per 60 mm tissue culture dish. For RNA preparation, cells were plated at a density of 7.5×10^5 cells per p100 mm dish. After 24 hours of growth at 33° C., the medium was replaced with IFN-free media and cells were moved to 37° C. (non-permissive conditions) for 24 hours to allow development of the differentiated colonocyte phenotype. […] Heat shock controls were heat-shocked at 42° C. for 23 minutes and then left at 37° C. for 2 hours before harvest.
# Intestinal epithelial cells were treated with conditioned media from the probiotic LGG and then assayed for inducible heat shock protein expression. For Western blot analyses of expression, cells were washed twice and then scraped in ice-cold PBS (137 mM NaCl, 2.7 mM KCl, 8 mM Na2HPO4, pH 7.4). Cells were pelleted (14,000×g for 20 seconds at room temperature), then resuspended in ice-cold lysis buffer (10 mM Tris, pH 7.4, 5 mM MgCl2, 50 U/ml each of DNAse and RNAse, plus complete protease inhibitor cocktail (Roche Molecular Biochemicals, Indianapolis, Ind.)). Protein concentrations were determined using the bicinchoninic acid procedure (Smith et al., 1985). Samples were heated to 75° C. for 5 minutes after addition of 3× Laemmli Stop buffer, then stored at −80° C. until use.
# Twenty micrograms of protein per lane were resolved on 12.5% SDS-PAGE. […]
compound,measurement,value
COc1cccc(-c2cc(=O)c3ccccc3o2)c1N [PD98059],inhibition of LGG-CM-induced Hsp72 expression,more modest effect
